Measurements taken from ChEMBL document CHEMBL5303573, “Mapping human microbiome drug metabolism by gut bacteria and their genes” (Nature, 2019).

Test: The drug is tested on Bifidobacterium longum subsp. Infantis strain: CCUG52486 for biotransformation. The drug concentrations were measured before and after a 12-h incubation by liquid-chromatography-coupled mass spectrometry (LC–MS)
Details: 2 µM

Structure (SMILES)	Bacterial Biotransformation
CN(C/C=C/C#CC(C)(C)C)Cc1cccc2ccccc12 [TERBINAFINE]	Compound NOT metabolized
COc1cc2nc(N3CCN(C(=O)C4CCCO4)CC3)nc(N)c2cc1OC (stereo not given) [TERAZOSIN]	Compound NOT metabolized
COc1ccc(C(CN(C)C)C2(O)CCCCC2)cc1 (stereo not given) [VENLAFAXINE]	Compound NOT metabolized

Test: The drug is tested on Collinsella aerofaciens strain: ATCC25986 for biotransformation. The drug concentrations were measured before and after a 12-h incubation by liquid-chromatography-coupled mass spectrometry (LC–MS)
Details: 2 µM

Structure (SMILES)	Bacterial Biotransformation
CN(C/C=C/C#CC(C)(C)C)Cc1cccc2ccccc12 [TERBINAFINE]	Compound NOT metabolized
COc1cc2nc(N3CCN(C(=O)C4CCCO4)CC3)nc(N)c2cc1OC (stereo not given) [TERAZOSIN]	Compound NOT metabolized
COc1ccc(C(CN(C)C)C2(O)CCCCC2)cc1 (stereo not given) [VENLAFAXINE]	Compound NOT metabolized

Test: The drug is tested on Collinsella intestinalis strain: DSM13280 for biotransformation. The drug concentrations were measured before and after a 12-h incubation by liquid-chromatography-coupled mass spectrometry (LC–MS)
Details: 2 µM

Structure (SMILES)	Bacterial Biotransformation
CN(C/C=C/C#CC(C)(C)C)Cc1cccc2ccccc12 [TERBINAFINE]	Compound NOT metabolized
COc1cc2nc(N3CCN(C(=O)C4CCCO4)CC3)nc(N)c2cc1OC (stereo not given) [TERAZOSIN]	Compound NOT metabolized
COc1ccc(C(CN(C)C)C2(O)CCCCC2)cc1 (stereo not given) [VENLAFAXINE]	Compound NOT metabolized

Test: The drug is tested on Bacteroides coprophilus strain: DSM18228 for biotransformation. The drug concentrations were measured before and after a 12-h incubation by liquid-chromatography-coupled mass spectrometry (LC–MS)
Details: 2 µM

Structure (SMILES)	Bacterial Biotransformation
CN(C/C=C/C#CC(C)(C)C)Cc1cccc2ccccc12 [TERBINAFINE]	Compound NOT metabolized
COc1cc2nc(N3CCN(C(=O)C4CCCO4)CC3)nc(N)c2cc1OC (stereo not given) [TERAZOSIN]	Compound NOT metabolized
COc1ccc(C(CN(C)C)C2(O)CCCCC2)cc1 (stereo not given) [VENLAFAXINE]	Compound NOT metabolized

Test: The drug is tested on Bacteroides dorei strain: DSM17855 for biotransformation. The drug concentrations were measured before and after a 12-h incubation by liquid-chromatography-coupled mass spectrometry (LC–MS)
Details: phocaeicola dorei, 2 µM

Structure (SMILES)	Bacterial Biotransformation
CN(C/C=C/C#CC(C)(C)C)Cc1cccc2ccccc12 [TERBINAFINE]	Compound NOT metabolized
COc1cc2nc(N3CCN(C(=O)C4CCCO4)CC3)nc(N)c2cc1OC (stereo not given) [TERAZOSIN]	Compound NOT metabolized
COc1ccc(C(CN(C)C)C2(O)CCCCC2)cc1 (stereo not given) [VENLAFAXINE]	Compound NOT metabolized

Test: The drug is tested on Bacteroides fragilis strain: HMW610 for biotransformation. The drug concentrations were measured before and after a 12-h incubation by liquid-chromatography-coupled mass spectrometry (LC–MS)
Details: 2 µM

Structure (SMILES)	Bacterial Biotransformation
CN(C/C=C/C#CC(C)(C)C)Cc1cccc2ccccc12 [TERBINAFINE]	Compound NOT metabolized
COc1cc2nc(N3CCN(C(=O)C4CCCO4)CC3)nc(N)c2cc1OC (stereo not given) [TERAZOSIN]	Compound NOT metabolized
COc1ccc(C(CN(C)C)C2(O)CCCCC2)cc1 (stereo not given) [VENLAFAXINE]	Compound NOT metabolized

Test: The drug is tested on Bacteroides pectinophilus strain: ATCC43243 for biotransformation. The drug concentrations were measured before and after a 12-h incubation by liquid-chromatography-coupled mass spectrometry (LC–MS)
Details: 2 µM

Structure (SMILES)	Bacterial Biotransformation
CN(C/C=C/C#CC(C)(C)C)Cc1cccc2ccccc12 [TERBINAFINE]	Compound NOT metabolized
COc1cc2nc(N3CCN(C(=O)C4CCCO4)CC3)nc(N)c2cc1OC (stereo not given) [TERAZOSIN]	Compound NOT metabolized
COc1ccc(C(CN(C)C)C2(O)CCCCC2)cc1 (stereo not given) [VENLAFAXINE]	Compound NOT metabolized

Test: The drug is tested on Bacteroides sp. WH2 strain: WH2 for biotransformation. The drug concentrations were measured before and after a 12-h incubation by liquid-chromatography-coupled mass spectrometry (LC–MS)
Details: bacteroides sp. wh2, 12 h, 2 µM

Structure (SMILES)	Bacterial Biotransformation
CN(C/C=C/C#CC(C)(C)C)Cc1cccc2ccccc12 [TERBINAFINE]	Compound NOT metabolized
COc1cc2nc(N3CCN(C(=O)C4CCCO4)CC3)nc(N)c2cc1OC (stereo not given) [TERAZOSIN]	Compound NOT metabolized
COc1ccc(C(CN(C)C)C2(O)CCCCC2)cc1 (stereo not given) [VENLAFAXINE]	Compound NOT metabolized

Test: The drug is tested on Parabacteroides merdae strain: ATCC43184 for biotransformation. The drug concentrations were measured before and after a 12-h incubation by liquid-chromatography-coupled mass spectrometry (LC–MS)
Details: 2 µM

Structure (SMILES)	Bacterial Biotransformation
CN(C/C=C/C#CC(C)(C)C)Cc1cccc2ccccc12 [TERBINAFINE]	Compound NOT metabolized
COc1cc2nc(N3CCN(C(=O)C4CCCO4)CC3)nc(N)c2cc1OC (stereo not given) [TERAZOSIN]	Compound NOT metabolized
COc1ccc(C(CN(C)C)C2(O)CCCCC2)cc1 (stereo not given) [VENLAFAXINE]	Compound NOT metabolized

Test: The drug is tested on Anaerococcus hydrogenalis strain: DSM7454 for biotransformation. The drug concentrations were measured before and after a 12-h incubation by liquid-chromatography-coupled mass spectrometry (LC–MS)
Details: 2 µM

Structure (SMILES)	Bacterial Biotransformation
CN(C/C=C/C#CC(C)(C)C)Cc1cccc2ccccc12 [TERBINAFINE]	Compound NOT metabolized
COc1cc2nc(N3CCN(C(=O)C4CCCO4)CC3)nc(N)c2cc1OC (stereo not given) [TERAZOSIN]	Compound NOT metabolized
COc1ccc(C(CN(C)C)C2(O)CCCCC2)cc1 (stereo not given) [VENLAFAXINE]	Compound NOT metabolized

Test: The drug is tested on Clostridium asparagiforme strain: DSM15981 for biotransformation. The drug concentrations were measured before and after a 12-h incubation by liquid-chromatography-coupled mass spectrometry (LC–MS)
Format: ADME
Set-up: dose 2 uM, timepoint 0 vs 12 hours
Details: enterocloster asparagiformis, 2 µM

Structure (SMILES)	Bacterial Biotransformation
CN(C/C=C/C#CC(C)(C)C)Cc1cccc2ccccc12 [TERBINAFINE]	Compound NOT metabolized
COc1cc2nc(N3CCN(C(=O)C4CCCO4)CC3)nc(N)c2cc1OC (stereo not given) [TERAZOSIN]	Compound NOT metabolized
COc1ccc(C(CN(C)C)C2(O)CCCCC2)cc1 (stereo not given) [VENLAFAXINE]	Compound NOT metabolized

Test: The drug is tested on Ruminococcus gnavus strain: ATCC29149 for biotransformation. The drug concentrations were measured before and after a 12-h incubation by liquid-chromatography-coupled mass spectrometry (LC–MS)
Details: mediterraneibacter gnavus, 2 µM

Structure (SMILES)	Bacterial Biotransformation
CN(C/C=C/C#CC(C)(C)C)Cc1cccc2ccccc12 [TERBINAFINE]	Compound NOT metabolized
COc1cc2nc(N3CCN(C(=O)C4CCCO4)CC3)nc(N)c2cc1OC (stereo not given) [TERAZOSIN]	Compound NOT metabolized
COc1ccc(C(CN(C)C)C2(O)CCCCC2)cc1 (stereo not given) [VENLAFAXINE]	Compound NOT metabolized

Test: The drug is tested on Edwardsiella tarda strain: ATCC23685 for biotransformation. The drug concentrations were measured before and after a 12-h incubation by liquid-chromatography-coupled mass spectrometry (LC–MS)
Details: 2 µM

Structure (SMILES)	Bacterial Biotransformation
CN(C/C=C/C#CC(C)(C)C)Cc1cccc2ccccc12 [TERBINAFINE]	Compound NOT metabolized
COc1cc2nc(N3CCN(C(=O)C4CCCO4)CC3)nc(N)c2cc1OC (stereo not given) [TERAZOSIN]	Compound NOT metabolized
COc1ccc(C(CN(C)C)C2(O)CCCCC2)cc1 (stereo not given) [VENLAFAXINE]	Compound NOT metabolized

Test: The drug is tested on Providencia stuartii strain: ATCC25827 for biotransformation. The drug concentrations were measured before and after a 12-h incubation by liquid-chromatography-coupled mass spectrometry (LC–MS)
Details: 2 µM

Structure (SMILES)	Bacterial Biotransformation
CN(C/C=C/C#CC(C)(C)C)Cc1cccc2ccccc12 [TERBINAFINE]	Compound NOT metabolized
COc1cc2nc(N3CCN(C(=O)C4CCCO4)CC3)nc(N)c2cc1OC (stereo not given) [TERAZOSIN]	Compound NOT metabolized
COc1ccc(C(CN(C)C)C2(O)CCCCC2)cc1 (stereo not given) [VENLAFAXINE]	Compound NOT metabolized

Details: bacteroides eggerthii, 12 h, 2 µM
Description: The drug is tested on Bacteroides eggerthii strain: DSM20697 for biotransformation. The drug concentrations were measured before and after a 12-h incubation by liquid-chromatography-coupled mass spectrometry (LC–MS)

Structure (SMILES)	Bacterial Biotransformation
CN(C/C=C/C#CC(C)(C)C)Cc1cccc2ccccc12 [TERBINAFINE]	Compound NOT metabolized
COc1cc2nc(N3CCN(C(=O)C4CCCO4)CC3)nc(N)c2cc1OC (stereo not given) [TERAZOSIN]	Compound NOT metabolized
COc1ccc(C(CN(C)C)C2(O)CCCCC2)cc1 (stereo not given) [VENLAFAXINE]	Compound NOT metabolized

Details: bacteroides intestinalis, 12 h, 2 µM
Description: The drug is tested on Bacteroides intestinalis strain: DSM17393 for biotransformation. The drug concentrations were measured before and after a 12-h incubation by liquid-chromatography-coupled mass spectrometry (LC–MS)

Structure (SMILES)	Bacterial Biotransformation
CN(C/C=C/C#CC(C)(C)C)Cc1cccc2ccccc12 [TERBINAFINE]	Compound NOT metabolized
COc1cc2nc(N3CCN(C(=O)C4CCCO4)CC3)nc(N)c2cc1OC (stereo not given) [TERAZOSIN]	Compound NOT metabolized
COc1ccc(C(CN(C)C)C2(O)CCCCC2)cc1 (stereo not given) [VENLAFAXINE]	Compound NOT metabolized

Details: bacteroides stercoris, 12 h, 2 µM
Description: The drug is tested on Bacteroides stercoris strain: ATCC43183 for biotransformation. The drug concentrations were measured before and after a 12-h incubation by liquid-chromatography-coupled mass spectrometry (LC–MS)

Structure (SMILES)	Bacterial Biotransformation
CN(C/C=C/C#CC(C)(C)C)Cc1cccc2ccccc12 [TERBINAFINE]	Compound NOT metabolized
COc1cc2nc(N3CCN(C(=O)C4CCCO4)CC3)nc(N)c2cc1OC (stereo not given) [TERAZOSIN]	Compound NOT metabolized
COc1ccc(C(CN(C)C)C2(O)CCCCC2)cc1 (stereo not given) [VENLAFAXINE]	Compound NOT metabolized

Details: bacteroides thetaiotaomicron, 12 h, 2 µM
Description: The drug is tested on Bacteroides thetaiotaomicron strain: 7330 for biotransformation. The drug concentrations were measured before and after a 12-h incubation by liquid-chromatography-coupled mass spectrometry (LC–MS)

Structure (SMILES)	Bacterial Biotransformation
CN(C/C=C/C#CC(C)(C)C)Cc1cccc2ccccc12 [TERBINAFINE]	Compound NOT metabolized
COc1cc2nc(N3CCN(C(=O)C4CCCO4)CC3)nc(N)c2cc1OC (stereo not given) [TERAZOSIN]	Compound NOT metabolized
COc1ccc(C(CN(C)C)C2(O)CCCCC2)cc1 (stereo not given) [VENLAFAXINE]	Compound NOT metabolized

Details: enterocloster bolteae, 12 h, 2 µM
Description: The drug is tested on Clostridium bolteae strain: ATCCBAA-613 for biotransformation. The drug concentrations were measured before and after a 12-h incubation by liquid-chromatography-coupled mass spectrometry (LC–MS)

Structure (SMILES)	Bacterial Biotransformation
CN(C/C=C/C#CC(C)(C)C)Cc1cccc2ccccc12 [TERBINAFINE]	Compound NOT metabolized
COc1cc2nc(N3CCN(C(=O)C4CCCO4)CC3)nc(N)c2cc1OC (stereo not given) [TERAZOSIN]	Compound NOT metabolized
COc1ccc(C(CN(C)C)C2(O)CCCCC2)cc1 (stereo not given) [VENLAFAXINE]	Compound NOT metabolized

Details: limosilactobacillus reuteri cf48-3a, 12 h, 2 µM
Description: The drug is tested on Lactobacillus reuteri CF48-3A strain: BEI HM-102 for biotransformation. The drug concentrations were measured before and after a 12-h incubation by liquid-chromatography-coupled mass spectrometry (LC–MS)

Structure (SMILES)	Bacterial Biotransformation
CN(C/C=C/C#CC(C)(C)C)Cc1cccc2ccccc12 [TERBINAFINE]	Compound NOT metabolized
COc1cc2nc(N3CCN(C(=O)C4CCCO4)CC3)nc(N)c2cc1OC (stereo not given) [TERAZOSIN]	Compound NOT metabolized
COc1ccc(C(CN(C)C)C2(O)CCCCC2)cc1 (stereo not given) [VENLAFAXINE]	Compound NOT metabolized
